Results on 8 compounds are retold here after US11524955B2, “2,4-diamino-pyrimidine compounds and method for making and using the compounds” (Rigel Pharmaceuticals, Inc., priority 2016, dated 2022).

One test has as its system IL-23, dendritic cells. The test can be described thus: IL-23 assay, human primary monocyte-derived dendritic cells, LPS stimulated, ELISA. Format: cell-based. The note with it: Dendritic cell, LPS stimulated, 10 pt, read-out: IL23-P19, ELISA, Dendritic, LPS, 10 pt. The procedure:
(§1) IL-23 assays: THP1 cells or human primary monocyte-derived dendritic cells (DC) were primed overnight with IFNg. Following one hour preincubation with compound, cells were stimulated overnight with LPS. IL-23 released into the media was quantitated by ELISA.

Another test deals with IL-23, THP1 cells. The test can be described thus: IL-23 assay, THP1 cells primed with IFNg, LPS stimulated, ELISA. It counts as cell-based. Conditions: Homo sapiens, THP-1. The method, then:
as §1

The target of a further test is T1, IRAK4 (Homo sapiens, UniProt Q9NWZ3).
T1 sequence (Q9NWZ3 1-460): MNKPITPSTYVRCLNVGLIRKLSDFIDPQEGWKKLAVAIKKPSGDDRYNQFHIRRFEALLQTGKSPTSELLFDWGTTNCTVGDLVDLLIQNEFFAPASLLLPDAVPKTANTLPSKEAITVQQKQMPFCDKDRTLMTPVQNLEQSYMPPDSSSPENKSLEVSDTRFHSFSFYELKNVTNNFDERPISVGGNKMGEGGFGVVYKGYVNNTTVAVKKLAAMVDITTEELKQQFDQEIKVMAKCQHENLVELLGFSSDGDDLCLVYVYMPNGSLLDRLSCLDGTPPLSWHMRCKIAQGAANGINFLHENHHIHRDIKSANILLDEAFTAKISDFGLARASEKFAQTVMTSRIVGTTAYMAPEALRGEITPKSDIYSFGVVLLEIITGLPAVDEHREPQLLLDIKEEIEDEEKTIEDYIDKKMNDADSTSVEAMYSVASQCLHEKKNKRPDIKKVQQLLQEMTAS
The test can be described thus: IRAK4 biochemical assay, ADP-Glo kinase assay. The note with it: for Selectivity (TAK1/IRAK4): ratio of TAK1 and IRAK4 IC50. The method, then:
(§2) IRAK4 and TAK1 biochemical assays: kinase activity was measured by ADP-Glo kinase assay (Promega).

In the next test the target is T2, TAK1 (Homo sapiens, UniProt O43318).
T2 sequence (O43318 1-303 limits assumed): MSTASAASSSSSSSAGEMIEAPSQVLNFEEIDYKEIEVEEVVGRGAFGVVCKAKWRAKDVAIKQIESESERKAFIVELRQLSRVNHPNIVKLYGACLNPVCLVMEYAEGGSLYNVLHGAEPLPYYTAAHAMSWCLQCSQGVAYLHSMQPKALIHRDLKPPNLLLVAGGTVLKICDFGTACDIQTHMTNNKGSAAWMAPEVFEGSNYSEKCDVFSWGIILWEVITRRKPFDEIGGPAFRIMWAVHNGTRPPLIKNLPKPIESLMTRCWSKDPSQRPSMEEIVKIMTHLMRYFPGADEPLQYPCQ
The test can be described thus: TAK1 biochemical assay, ADP-Glo kinase assay. The procedure: as §2

Where [1] appears, read: THP1 cells, IFNy primed, LPS stimulated, 10 pt, read-out: IL23-p19 ELISA, THP1-IFNy, LPS, 10 pt.
Where [2] appears, read: read-out: IL23 (LPS induced) IC50.

pIC50: −log10 of the molar value. Like-named read-outs stand apart in the source and are kept apart here. Some results are limits rather than exact numbers.

In the case of `Cc1cc(Nc2ncc(-c3cccnc3)c(NC3C4C=CC(C4)C3C(N)=O)n2)ccc1OCCN1CCCC1` (stereo not shown) [Compound 1, 3-((2-((3-methyl-4-(2-(pyrrolidin-1-yl)ethoxy)phenyl)amino)-5-(pyridin-3-yl)pyrimidin-4-yl)amino)bicyclo[2.2.1] hept-5-ene-2-carboxamide], the pIC50 is above 6.60 with IL-23, dendritic cells and above 7.00 in the test with IL-23, THP1 cells (setting [1]).

In the case of `NC(=O)[C@@H]1[C@H](Nc2nc(Nc3ccc(OCCN4CCCC4)cc3)ncc2-c2cccnc2)[C@H]2C=C[C@@H]1C2` [Compound 2], the pIC50 with IL-23, THP1 cells (setting [1]) is above 6.00.

Turning to `CS(=O)(=O)N1CCN(c2ccc(Nc3ncc(-c4cccnc4)c(N[C@@H]4C5C=CC(C5)[C@@H]4C(N)=O)n3)cc2F)CC1` (stereo partly drawn) [Compound 3, (2S,3R)-3-((2-((3-fluoro-4-(4-(methylsulfonyl)piperazin-1-yl)phenyl)amino)-5-(pyridin-3-yl)pyrimidin-4-yl)amino)bicyclo[2.2.1] hept-5-ene-2-carboxamide], in the test on IL-23, THP1 cells (setting [1]), the pIC50 is above 6.00.

Turning to `NC(=O)[C@@H]1[C@H](Nc2nc(Nc3cccc(C(=O)N4CCCC4)c3)ncc2-c2cccnc2)[C@H]2C=C[C@@H]1C2` [Compound 4, (1S,2S,3R,4R)-3-((5-(pyridin-3-yl)-2-((3-(pyrrolidine-1-carbonyl)phenyl)amino)pyrimidin-4-yl)amino)bicyclo[2.2.1] hept-5-ene-2-carboxamide], the pIC50 was 8.00 against IRAK4; 6.64 against TAK1; above 6.00 in the test with IL-23, THP1 cells (setting [1]); 6.49 with IL-23, THP1 cells (setting [2]).

Regarding `Cc1cnc(Nc2cccc(C(=O)N3CCCC3)c2)nc1N[C@H]1[C@@H](C(N)=O)[C@@H]2C=C[C@H]1C2` [Compound 5, (1S,2S,3R,4R)-3-((5-methyl-2-((3-(pyrrolidine-1-carbonyl)phenyl)amino)pyrimidin-4-yl)amino)bicyclo[2.2.1] hept-5-ene-2-carboxamide], the pIC50 on IRAK4 is 8.52; against TAK1 it was 8.10; with IL-23, THP1 cells (setting [1]), above 7.00; with IL-23, THP1 cells (setting [2]) it was 7.00.

Regarding `NC(=O)[C@@H]1[C@H](Nc2nc(Nc3cccc(C(=O)N4CCCC4)c3)ncc2-c2ccccc2F)[C@H]2C=C[C@@H]1C2` [Compound 10, (1S,2S,3R,4R)-3-((5-(2-fluorophenyl)-2-((3-(pyrrolidine-1-carbonyl)phenyl)amino)pyrimidin-4-yl)amino)bicyclo[2.2.1] hept-5-ene-2-carboxamide], the pIC50 was 7.96 against IRAK4; 5.32 against TAK1; above 6.00 in the test with IL-23, THP1 cells (setting [1]); 6.06 with IL-23, THP1 cells (setting [2]). At IRAK4, this compound displayed an IRAK4/TAK1 selectivity of 434. The “Selectivity (TAK1/IRAK4)” value at IRAK4 is 434.

On to `N#Cc1cccc(-c2cnc(Nc3cccc(C(=O)N4CCCC4)c3)nc2N[C@@H]2CCCC[C@@H]2C(N)=O)c1` [Compound 17, (1S,2R)-2-((5-(3-cyanophenyl)-2-((3-(pyrrolidine-1-carbonyl)phenyl)amino)pyrimidin-4-yl)amino)cyclohexane-1-carboxamide], for which the pIC50 was 7.52 at IRAK4; 7.17 at TAK1; above 6.00 with IL-23, THP1 cells (setting [1]); 6.05 with IL-23, THP1 cells (setting [2]). For the same compound, the “Selectivity (TAK1/IRAK4)” value on IRAK4 is 2.

For `N#Cc1cccc(-c2cnc(Nc3cccc(C(=O)N4CCCC4)c3)nc2N[C@H]2[C@@H](C#N)[C@@H]3C=C[C@H]2C3)c1` [Compound 18, (1S,2S,3R,4R)-3-((5-(3-cyanophenyl)-2-((3-(pyrrolidine-1-carbonyl)phenyl)amino)pyrimidin-4-yl)amino)bicyclo[2.2.1] hept-5-ene-2-carbonitrile], the pIC50 is 5.43 against IRAK4; 3.88 against TAK1; below 6.00 with IL-23, THP1 cells (setting [1]); 5.47 in the test on IL-23, THP1 cells (setting [2]). For the same compound, the “Selectivity (TAK1/IRAK4)” value at IRAK4 is 36.
